Where two headings read alike, the source gives them in different places. Where a SMILES comes first, the peptide text is derived from it. Where no end group is shown, it is not given here. [ ]: non-standard residue; d: D form. The star is where a group is joined. Biotin = O=C1N[C@H]2[C@H](CS[C@H]2CCCCC(=O)*)N1; pY = N[C@@H](Cc1ccc(OP(=O)(O)O)cc1)C(=O)O

One assay addresses T1, GADS SH2 (Homo sapiens, UniProt O75791).
T1 construct: Recombinant His-tagged SH2 domains of GADS, GRB2, and TSAd in the popinF vector; His tag; made in house; host or cells: Escherichia coli Rosetta(DE3)/pLysS
T1 sequence (O75791 58-149 limits assumed): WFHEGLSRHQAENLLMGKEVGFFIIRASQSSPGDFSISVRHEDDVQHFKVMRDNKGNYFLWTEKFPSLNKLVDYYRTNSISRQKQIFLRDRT
Kind of assay: SPR equilibrium binding of recombinant GADS SH2 domain to immobilized phosphopeptides. The following applies: 37°C. The source says: (§1) We measured the direct binding of purified monomeric SH2 domains to the phosphorylated CD6 Y629 peptide at physiological temperature using surface plasmon resonance (SPR) (Fig. 1). The sensorgram traces for all three proteins binding to phosphorylated CD6 Y629 are consistent with monomeric binding of all three proteins (Fig. 1, right). Equilibrium binding data were plotted to determine dissociation constants (KDs) (Fig. 1, left). GADS and GRB2 bound with similar KDs to phosphorylated Y629, at 1 to 3 μM and 2 to 4 μM, respectively (Fig. 1A and B and Table 2). As an indication that the recombinant proteins were active, the SH2 domains of GADS and GRB2 bound to a phosphorylated CD28-derived peptide containing the YXN motif with an affinity (KD = 2 to 3 μM) similar to that determined by previous measurements (Fig. 1 and Table 2) ([14]).
(§2) Recombinant His-tagged SH2 domains of GADS, GRB2, and TSAd in the popinF vector (provided by Louis Bird, Oxford Protein Production Facility, Harwell, Oxfordshire, UK) and SLP-76 ([1]) were expressed in Escherichia coli Rosetta(DE3)/pLysS competent cells (Novagen) and purified by nickel affinity chromatography and size exclusion chromatography. Peptides for CD6 pY662 (biotin-[…]pYDDISAA), CD6 Y629 (biotin-[…]), CD6 pY629 (biotin-SSGEWpYQNFQP), and CD28 pYMNM (biotin-LLHSDpYMNMTP) were immobilized at ∼25 response units on streptavidin-coated CM5 chips in a BIAcore 3000 machine (Peptide Protein Research Ltd., Hampshire, UK) ([1], [14]). Long CD6 peptides (biotin-[…]pYDDISAA) phosphorylated at Y629 (pY629), Y662 (pY662), or both (pY629 pY662) were immobilized at ∼50 response units. Serially diluted proteins were injected over the chip at 10 μl/min at 37°C. Background signals of proteins over a streptavidin-coated flow cell were subtracted, equilibrium binding data were plotted, and KDs for 1:1 Langmuir binding were determined.

The target in another assay is T2, SLP-76 SH2 (Homo sapiens, UniProt Q13094).
T2 construct: 2-fold serial dilutions of GADS (10 μM) (A) and SLP-76 (20 μM) (B) SH2 domains over the long CD6 peptides; His tag; made in house; host or cells: Escherichia coli Rosetta(DE3)/pLysS
T2 sequence (Q13094 422-530 limits assumed): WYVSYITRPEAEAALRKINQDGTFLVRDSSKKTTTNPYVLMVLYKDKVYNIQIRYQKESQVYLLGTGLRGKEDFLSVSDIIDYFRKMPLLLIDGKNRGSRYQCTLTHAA
The experiment in a line: SPR equilibrium binding of recombinant SLP-76 SH2 domain to immobilized long CD6 peptides. As to conditions: 37°C; for Kd: equilibrium binding of soluble recombinant SH2 domain to immobilized long CD6 peptides (~50 RU), range, n = 3.
From the text: SPR analysis with long peptides containing both Y629 and Y662 phosphorylated at either or both tyrosine residues confirmed the specificity of the SH2 domains of GADS and SLP-76 for the CD6 Y629 and Y662 motifs, respectively (Fig. 3 and Table 3). […] Coprecipitation of GADS with CD6 was not observed in Jurkat (J14) cells, which lack SLP-76 (data not shown). GADS and SLP-76 interact with each other independently of their SH2 domains. A GADS SH3 domain binds to a proline-rich region of SLP-76 ([15]). This configuration means that both SH2 domains are available for bivalent binding to two phosphorylated tyrosine residues in close proximity. CD6 Y629 is the closest tyrosine residue to CD6 Y662 in the linear amino acid sequence of the cytoplasmic region.
as §2

The target in another assay is T3, GRB2 SH2 (Homo sapiens, UniProt P62993).
T3 construct: Recombinant His-tagged SH2 domains of GADS, GRB2, and TSAd in the popinF vector; His tag; made in house; host or cells: Escherichia coli Rosetta(DE3)/pLysS
The experiment in a line: SPR equilibrium binding of recombinant GRB2 SH2 domain to immobilized phosphopeptides. As to conditions: 37°C.
From the text: as §1, §2

The next assay addresses T4, TSAd SH2 (Homo sapiens, UniProt Q9NP31).
T4 construct: Recombinant His-tagged SH2 domains of GADS, GRB2, and TSAd in the popinF vector; His tag; made in house; host or cells: Escherichia coli Rosetta(DE3)/pLysS
Kind of assay: SPR equilibrium binding of recombinant TSAd SH2 domain to immobilized phosphopeptides. As to conditions: equilibrium binding of soluble recombinant SH2 domain to immobilized biotinylated peptide, 37°C, 1:1 Langmuir, range, n = 3 (CD28 pYMN: n = 1).
From the text: as §1
Recombinant His-tagged SH2 domains of GADS, GRB2, and TSAd in the popinF vector (provided by Louis Bird, Oxford Protein Production Facility, Harwell, Oxfordshire, UK) and SLP-76 ([1]) were expressed in Escherichia coli Rosetta(DE3)/pLysS competent cells (Novagen) and purified by nickel affinity chromatography and size exclusion chromatography. […] Background signals of proteins over a streptavidin-coated flow cell were subtracted, equilibrium binding data were plotted, and KDs for 1:1 Langmuir binding were determined.

Where [1] appears, read: equilibrium binding of soluble recombinant SH2 domain to immobilized long CD6 peptides (~50 RU), range, n = 3, read-out: KD (μM) (range) GADS SH2.
Where [2] appears, read: equilibrium binding of soluble recombinant SH2 domain to immobilized biotinylated peptide (~25 RU on streptavidin-coated CM5 chip), 1:1 Langmuir, range, n = 3, read-out: KD (μM) GRB2 SH2.
The mark [3] stands for this setting: equilibrium binding of soluble recombinant SH2 domain to immobilized biotinylated peptide (~25 RU on streptavidin-coated CM5 chip), 1:1 Langmuir, range, n = 3, read-out: KD (μM) GADS SH2.
Where [4] appears, read: fitted equilibrium curve of the experiment shown, 2-fold serial dilutions of GADS SH2 from 35 μM over immobilized peptide, streptavidin background subtracted, read-out: KD, GADS SH2 (Fig. 1A).

T3 sequence (P62993 60-152 limits assumed): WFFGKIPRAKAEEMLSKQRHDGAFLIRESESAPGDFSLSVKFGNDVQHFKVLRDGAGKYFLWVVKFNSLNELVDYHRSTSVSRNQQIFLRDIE
T4 sequence (Q9NP31 95-186 limits assumed): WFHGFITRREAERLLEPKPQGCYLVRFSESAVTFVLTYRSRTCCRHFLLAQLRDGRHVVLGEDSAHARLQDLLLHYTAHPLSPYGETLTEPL

Broadly, the Kd is the constant that tells how readily two partners part at equilibrium. Turning to “Biotin-STSSGEW[pY]QNFQPPPQPPSEEQFGCPGSPSPQPDSTDNDDYDDISAA [pY629]”, at GADS SH2 (setting [1]), the equilibrium dissociation constant (Kd) is 0.2 to 0.6 µM. Also, at SLP-76 SH2 (long CD6 peptides, data not shown), the “binding of the SLP-76 SH2 domain” value is given as “no binding”.

As to `CSCC[C@H](NC(=O)[C@H](Cc1ccc(OP(=O)(O)O)cc1)NC(=O)[C@H](CC(=O)O)NC(=O)[C@H](CO)NC(=O)[C@H](Cc1c[nH]cn1)NC(=O)[C@H](CC(C)C)NC(=O)[C@H](CC(C)C)NC(=O)CCCC[C@@H]1SC[C@@H]2NC(=O)N[C@@H]21)C(=O)N[C@@H](CC(N)=O)C(=O)N[C@@H](CCSC)C(=O)N[C@H](C(=O)N1CCC[C@H]1C(=O)O)[C@@H](C)O` [CD28 pYMN, reference compound] (Biotin-LLHSD[pY]MNMTP-OH), the Kd is 2 to 3 µM on GRB2 SH2 (setting [2]), 2 to 3 µM at GADS SH2 (setting [3]) and 2 µM at GADS SH2 (setting [4]).

Regarding `NC(=O)CC[C@H](NC(=O)[C@H](Cc1ccc(OP(=O)(O)O)cc1)NC(=O)[C@H](Cc1c[nH]c2ccccc12)NC(=O)[C@H](CCC(=O)O)NC(=O)CNC(=O)[C@H](CO)NC(=O)[C@H](CO)NC(=O)CCCC[C@@H]1SC[C@@H]2NC(=O)N[C@@H]21)C(=O)N[C@@H](CC(N)=O)C(=O)N[C@@H](Cc1ccccc1)C(=O)N[C@@H](CCC(N)=O)C(=O)N1CCC[C@H]1C(=O)O` [CD6 pY629] (Biotin-SSGEW[pY]QNFQP-OH), the Kd was 26 to 58 µM at TSAd SH2; 2 to 4 µM at GRB2 SH2 (setting [2]); 2 µM on GRB2 SH2 (fitted equilibrium curve of the experiment shown, 2-fold serial dilutions of GRB2 SH2 from 106 μM over immobilized peptide, streptavidin background subtracted, read-out: KD, GRB2 SH2 (Fig. 1B)); 1 to 3 µM at GADS SH2 (setting [3]); 1 µM on GADS SH2 (setting [4]).

Turning to “Biotin-STSSGEWYQNFQPPPQPPSEEQFGCPGSPSPQPDSTDNDD[pY]DDISAA [pY662]”, the Kd on SLP-76 SH2 lay within 0.3 to 2 µM.

Consider “Biotin-STSSGEW[pY]QNFQPPPQPPSEEQFGCPGSPSPQPDSTDNDD[pY]DDISAA [pY629 pY662]”, for which the figures for the Kd on GADS SH2 (setting [1]) and on SLP-76 SH2 were 0.1 to 2 µM and 0.3 to 2 µM, respectively.

The values are drawn from article PMC5440646, “T Cell Costimulation by CD6 Is Dependent on Bivalent Binding of a GADS/SLP-76 Complex” (Molecular and Cellular Biology, 2017).
